Assay results reported in patent US4816447A, “Anti-viral guanine compounds” (priority 1984, dated 1989).

Legend:
[1] = tested on: feline rhinotracheitis virus; assay: Antiviral activity against feline rhinotracheitis virus; assay type: cell-based; settings: data not shown, read-out: ED50 (the source's name)
[2] = tested on: HSV1; assay: In vitro assay, viral cytopathology of HSV1 in primary rabbit kidney cells; assay type: cell-based; settings: Human alphaherpesvirus 1; days 5 and 7; read-out: Min. Effective Dose against HSV1
[3] = tested on: HSV1 (Strain Schooler); assay: In vivo assay, intraperitoneal HSV1 infection of mice, subcutaneous treatment (Table IV); set-up: species or system HSV1; ICR/Ha mice; settings: for Percent Survival: 15 days
Method: Twenty gram ICR/Ha mice were infected with approximately 100 lethal doses (100LD50) of HSV1 (Strain Schooler) by the intraperitoneal route. Groups of 10 infected animals were treated twice daily for four days starting immediately after infection by subcutaneous injection at final daily doses of 50, 12.5, 3.1, 0.8, 0.2, 0.05 and 0.0125 mg/kg of potassium 9-(1,3-dihydroxy-2-propoxymethyl)guanine cyclic monophosphate. The mice were observed daily for 15 days at the same time each day and the day of death recorded for each animal.

[4] = tested on: primary rabbit kidney cell cultures; assay: Toxicity controls in primary rabbit kidney cell cultures; assay type: cell-based; settings: at 100 μg/ml
[5] = tested on: influenza A; assay: RNA virus replication, influenza A; assay type: cell-based
[6] = tested on: equine herpes virus; assay: Antiviral activity against equine herpes virus; assay type: cell-based; settings: data not shown, read-out: ED50 (the source's name)
[7] = tested on: polio; assay type: cell-based
[8] = tested on: HSV-1; assay: Intracerebral HSV-1 infection in weanling mice, subcutaneous treatment (Table VI); assay type: in vivo, HSV-1; ICR/Ha weanling mice
[9] = tested on: HSV2; assay: In vitro assay, viral cytopathology of HSV2 in primary rabbit kidney cells; assay type: cell-based; settings: Human alphaherpesvirus 2; days 5 and 7; read-out: Min. Effective Dose against HSV2
[10] = tested on: vesicular stomatitis; assay type: cell-based
[11] = tested on: HSV-2; assay: Therapeutic efficacy against vaginal HSV-2 infection of mice (Table VII); assay type: in vivo, HSV-2; mice; settings: for Survivors/Total: 0.55 μmoles oral gavage twice daily; for therapeutic effectiveness, treatment initiated up to 72 hours after infection: vaginal HSV-2
Method: d. HSV-2 vaginal infection in mice is progressive from local acute infection of the genital area to limb paralysis and eventual death. This is a consistent, reproducible model, but is more virulent and progressive than the human genital disease. Drug efficacy is determined ultimately by extension of animal survival time, and also by the limitation of progression of disease from acute local through paralysis to death. Animals are challenged using in excess of 10 lethal equivalent doses of HSV-2. This model was used to evaluate dosing by oral gavage.

[12] = tested on: HSV-1 PAA ®1; settings: HSV-1 PAA R1
[13] = molecular target: thymidine kinase, isolated from HSV1-infected HeLa cells (Human herpesvirus 1, UniProt P0DTH5); assay: Competition between thymidine and acycloguanosine or compound of formula II for phosphorylation by the virus-induced thymidine kinase; assay type: biochemical; settings: for Percent monophosphate: 1200 min
Chain of thymidine kinase, isolated from HSV1-infected HeLa cells (P0DTH5 whole entry): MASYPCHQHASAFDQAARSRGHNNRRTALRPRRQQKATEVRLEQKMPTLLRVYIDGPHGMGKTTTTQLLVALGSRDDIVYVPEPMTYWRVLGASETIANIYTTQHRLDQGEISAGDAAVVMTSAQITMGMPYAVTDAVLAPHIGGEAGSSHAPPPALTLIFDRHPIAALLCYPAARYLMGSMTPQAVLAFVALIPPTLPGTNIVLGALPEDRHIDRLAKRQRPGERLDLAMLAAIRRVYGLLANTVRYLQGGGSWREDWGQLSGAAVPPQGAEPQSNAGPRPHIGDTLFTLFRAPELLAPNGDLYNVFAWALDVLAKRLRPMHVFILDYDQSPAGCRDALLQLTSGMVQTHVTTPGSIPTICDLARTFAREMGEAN

[14] = tested on: HSV-1 (383R1); assay: Phosphorylation capacity of HSV-1 (383R1); assay type: biochemical
[15] = molecular target: HSV1-induced thymidine kinase (Human alphaherpesvirus 1 strain 17, UniProt P0DTH5); assay: Kinetic parameters with purified viral thymidine kinase; assay type: biochemical; settings: compound of formula II to acycloguanosine
Chain of HSV1-induced thymidine kinase (P0DTH5 whole entry): as above

[16] = tested on: HSV-1 (383R1); assay type: cell-based; settings: HSV-1 (383R1) vs wild type
[17] = tested on: Cytomegalovirus; assay: Cytomegalovirus plaque reduction assay on human MRC-5 monolayers; assay type: cell-based, Cytomegalovirus (Towne Strain); human MRC-5 cells
Method: The compound of formula II was effective in suppressing cytomegalovirus plaque formation on MRC-5 cell monolayers using 0.1 to 0.6 μg/ml.
^d Plaque reduction assay on human MRC5 cell monolayers

[18] = treatment initiated 0 hrs after infection
[19] = treatment initiated 24 hrs after infection
[20] = treatment initiated 48 hrs after infection
[21] = treatment initiated 72 hrs after infection

Nc1nc2c(ncn2COC2COP(=O)(O)OC2)c(=O)[nH]1 (centres unmarked) [Cyclic Monophosphate, Potassium 9-(1,3-dihydroxy-2-propoxymethyl)guanine cyclic monophosphate]
EC50 [1]: ~1 µg/mL | minimal effective concentration [2]: 12.5 to 25 µg/mL | Ave. Survival Time ([3]; Expt. 1, 0.2 mg/kg/day s.c.): 13.5 days | Percent Survival ([3]; Expt. 1, 0.2 mg/kg/day s.c.): 70% | Ave. Survival Time ([3]; Expt. 1, 0.8 mg/kg/day s.c.): 10.5 days | Percent Survival ([3]; Expt. 1, 0.8 mg/kg/day s.c.): 40% | Ave. Survival Time ([3]; Expt. 1, 3.1 mg/kg/day s.c.): 10.7 days | Percent Survival ([3]; Expt. 1, 3.1 mg/kg/day s.c.): 20% | Ave. Survival Time ([3]; Expt. 1, 12.5 mg/kg/day s.c.): 19.5 days | Percent Survival ([3]; Expt. 1, 12.5 mg/kg/day s.c.): 100% | Ave. Survival Time ([3]; Expt. 1, 50 mg/kg/day s.c.): 19.5 days | Percent Survival ([3]; Expt. 1, 50 mg/kg/day s.c.): 100% | Ave. Survival Time ([3]; Expt. 2, 0.0125 mg/kg/day s.c.): 6.3 days | Percent Survival ([3]; Expt. 2, 0.0125 mg/kg/day s.c.): 10% | Ave. Survival Time ([3]; Expt. 2, 0.05 mg/kg/day s.c.): 6.0 days | Percent Survival ([3]; Expt. 2, 0.05 mg/kg/day s.c.): 0% | Ave. Survival Time ([3]; Expt. 2, 0.2 mg/kg/day s.c.): 8.3 days | Percent Survival ([3]; Expt. 2, 0.2 mg/kg/day s.c.): 30% | Ave. Survival Time ([3]; Expt. 2, 0.8 mg/kg/day s.c.): 7.4 days | Percent Survival ([3]; Expt. 2, 0.8 mg/kg/day s.c.): 0% | Ave. Survival Time ([3]; Expt. 2, 3.1 mg/kg/day s.c.): 11.5 days | Percent Survival ([3]; Expt. 2, 3.1 mg/kg/day s.c.): 50% | Ave. Survival Time ([3]; Expt. 2, 12.5 mg/kg/day s.c.): 15.0 days | Percent Survival ([3]; Expt. 2, 12.5 mg/kg/day s.c.): 60% | Toxicity [4]: Not tox. | effect on RNA virus replication [5]: not effective | EC50 [6]: ~1 µg/mL | effect on RNA virus replication [7]: not effective | minimal effective dose ([8]; Human alphaherpesvirus 1, sc, intracerebral infection, subcutaneous treatment, read-out: Min. Effective Dose): 0.8 mg/kg/day | efficacy relative to acyclovir by minimum effective dose ([8]; intracerebral): consistently more efficacious than acyclovir | minimal effective concentration [9]: 50 to 100 µg/mL | effect on RNA virus replication [10]: not effective | Survivors/Total [11, 18]: 8/10 | Survivors/Total [11, 19]: 3/10 | Survivors/Total [11, 20]: 2/10 | Survivors/Total [11, 21]: 3/10 | therapeutic effectiveness, treatment initiated up to 72 hours after infection [11]: therapeutically effective

Nc1nc2c(ncn2COCCO)c(=O)[nH]1 [Acycloguanosine, 9-(2-hydroxyethoxymethyl)guanine, reference compound]
Sensitivity (S) or Resistance (R) [12]: R | Survivors/Total [11, 18]: 1/10 | Avg. Survival Days (confidence interval) [11, 19]: 12.1 (8.8, 17.3) Days | Survivors/Total [11, 19]: 3/10 | Avg. Survival Days (confidence interval) [11, 20]: 12.4 (8.2, 20.7) Days | Survivors/Total [11, 20]: 5/10 | Avg. Survival Days (confidence interval) [11, 21]: 9.0 (7.1, 11.3) Days | Survivors/Total [11, 21]: 1/10 | therapeutic effectiveness, treatment initiated up to 72 hours after infection [11]: ineffective

Nc1nc2c(ncn2COC(CO)CO)c(=O)[nH]1 [Compound of Formula II, 9-(1,3-Dihydroxy-2-propoxymethyl)guanine]
phosphorylation in presence of a large excess of thymidine ([13]; large excess of thymidine): is phosphorylated by the viral thymidine kinase even in the presence of a large excess of thymidine | Percent monophosphate ([13]; plus 2.5 mM thymidine): 23% | Percent monophosphate ([13]; without thymidine): 93% | phosphorylation by HSV-1 (383R1) [14]: incapable of phosphorylation | relative efficiency as substrate (Vmax /Km) vs acycloguanosine [15]: 30 to 1 | less susceptible than wild type [16]: approximately 100 fold | calculated average relative potency to acycloguanosine (95% CI) [17]: 28.6
